In assay [1] the test system is functional HyNaC heterotrimer. The experiment in a line: Screen of functional HyNaC heterotrimers in Xenopus oocytes for activation by Hydra-RFamides. The conditions noted are these: for activation of functional HyNaC heterotrimers (current elicited): 5 μM peptide, Xenopus oocytes. Format: cell-based, Hydra magnipapillata. How it is done: We tested the function of the new HyNaCs by co-expression of different HyNaC subunit combinations in Xenopus oocytes. We screened for functional subunit combinations by application of 5 μM Hydra-RFamide I, a potent agonist of HyNaC2/3/5 [4]. When we expressed an individual HyNaC subunit we could never elicit currents. […] When HyNaC2 was part of the injected cRNA pool, however, Hydra-RFamide I elicited currents. Simultaneous expression of HyNaC2 with a single other HyNaC resulted only in a functional channel when we co-expressed HyNaC2 and HyNaC3; it was already known that HyNaC2 and HyNaC3 form a low-affinity peptide-gated channel.
Dashed line represents the zero current level. Amino acid sequences of Hydra-RFamides I to V are shown at the bottom. HyNaC, Hydra Na^+ channel.
Since Hydra-RFamide II had been shown previously to activate HyNaC2/3/5 [4], we tested Hydra-RFamides II to V for channel activation.
(§1) To study the biophysical properties of the new HyNaCs, cRNA of HyNaCs was synthesized in vitro (mMessage mMachine kit, Ambion, Austin, Texas, USA) and injected into Xenopus laevis oocytes of stage V and VI. After injection, oocytes were incubated for one to two days at 19°C in oocyte Ringer’s solution 2 (OR-2), which contained (in mM): 82.5 NaCl, 2.5 KCl, 1.0 Na2HPO4, 1.0 MgCl2, 1.0 CaCl2, 5.0 HEPES, 0.5 g/l PVP, 1,000 U/l penicillin and 10 mg/l streptomycin, NaOH was used to adjust pH to 7.3. Whole cell currents were recorded from defolliculated oocytes by two-electrode voltage-clamp (TEVC) using the amplifier TurboTec 03X (npi electronic GmbH, Tamm, Germany). Standard bath solution (in mM: 140 NaCl, 10 HEPES, 1.8 CaCl2 and 1.0 MgCl2. NaOH was used to adjust pH to 7.4.) was exchanged by a pump driven system combined with the oocyte testing carousel (OTC), which was controlled by the interface OTC-20 [53]. To control the OTC-20 and to record the data to the hard drive, the software CellWorks (version 5.1.1; npi electronic GmbH, Tamm, Germany) was used. Data were sampled at 0.1 to 1 kHz and filtered at 20 Hz. HyNaCs are permeable for Ca^2+, activating an endogenous CaCC [40]. Therefore, unless otherwise indicated, oocytes were injected with 50 nl of 20 mM EGTA 30 to 180 minutes before measurements. Reversal potentials and Ca^2+ permeabilities of HyNaCs were studied as described previously.

Assay [2] deals with T1, HyNaC2/3/5 (Hydra vulgaris (Hydra magnipapillata), UniProt A8DZR6+A8DZR7+D3UD58). The arrangement: method as in PMID 20159980. The conditions noted are these: ref [4], cited from earlier work.
T1 sequence (A8DZR6 entry or part of it): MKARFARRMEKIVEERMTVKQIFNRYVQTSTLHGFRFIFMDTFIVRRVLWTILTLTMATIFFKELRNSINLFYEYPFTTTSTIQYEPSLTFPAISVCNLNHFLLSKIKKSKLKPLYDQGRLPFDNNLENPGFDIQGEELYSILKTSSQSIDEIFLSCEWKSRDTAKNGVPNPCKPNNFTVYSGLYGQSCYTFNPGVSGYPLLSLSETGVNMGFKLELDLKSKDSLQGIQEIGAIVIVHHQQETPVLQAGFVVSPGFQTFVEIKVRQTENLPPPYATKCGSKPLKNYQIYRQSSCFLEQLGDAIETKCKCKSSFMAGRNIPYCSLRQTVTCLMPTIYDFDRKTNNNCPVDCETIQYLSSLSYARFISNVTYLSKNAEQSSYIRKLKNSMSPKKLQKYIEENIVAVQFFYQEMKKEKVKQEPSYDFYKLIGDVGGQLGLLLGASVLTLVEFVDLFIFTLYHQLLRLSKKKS
T1 sequence (D3UD58 entry or part of it): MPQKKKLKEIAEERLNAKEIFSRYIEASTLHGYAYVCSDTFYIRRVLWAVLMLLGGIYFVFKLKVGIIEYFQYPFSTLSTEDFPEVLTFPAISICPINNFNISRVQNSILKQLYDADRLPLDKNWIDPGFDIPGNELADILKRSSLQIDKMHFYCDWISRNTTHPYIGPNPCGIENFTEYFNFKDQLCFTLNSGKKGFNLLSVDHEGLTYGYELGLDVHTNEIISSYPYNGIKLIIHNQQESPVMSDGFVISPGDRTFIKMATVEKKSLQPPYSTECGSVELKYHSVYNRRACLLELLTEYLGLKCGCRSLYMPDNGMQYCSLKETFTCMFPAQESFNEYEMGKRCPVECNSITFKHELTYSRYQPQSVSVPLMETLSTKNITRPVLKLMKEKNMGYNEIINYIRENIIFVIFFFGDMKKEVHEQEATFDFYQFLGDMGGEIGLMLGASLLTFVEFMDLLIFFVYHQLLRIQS
T1 sequence (A8DZR7 entry or part of it): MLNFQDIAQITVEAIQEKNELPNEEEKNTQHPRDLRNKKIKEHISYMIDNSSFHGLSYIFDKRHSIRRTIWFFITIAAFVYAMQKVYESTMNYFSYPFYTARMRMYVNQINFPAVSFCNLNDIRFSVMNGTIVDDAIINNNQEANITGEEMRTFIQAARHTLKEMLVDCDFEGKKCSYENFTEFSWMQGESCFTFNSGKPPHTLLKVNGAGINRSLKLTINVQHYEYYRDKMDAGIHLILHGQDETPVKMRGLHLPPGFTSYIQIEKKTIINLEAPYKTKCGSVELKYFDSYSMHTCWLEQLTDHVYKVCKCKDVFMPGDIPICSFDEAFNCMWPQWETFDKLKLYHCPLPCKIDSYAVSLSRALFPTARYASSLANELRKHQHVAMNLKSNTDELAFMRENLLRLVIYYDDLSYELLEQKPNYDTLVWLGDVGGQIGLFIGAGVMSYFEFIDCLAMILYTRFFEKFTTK
A further assay deals with HyNaC2/10/7 (Hydra vulgaris (Hydra magnipapillata), UniProt A0A0A0MP61+A0A0A0MP73+A8DZR6). Briefly: Activation of HyNaC2/10/7 expressed in Xenopus oocytes by Hydra-RFamides (TEVC). Format: cell-based. Particulars: EGTA-injected oocytes. The method, then: as §1
(§2) EC50 values for Hydra-RFamides I and II as well as IC50 values for diminazene were determined by fits to the Hill equation using IGOR Pro (version 6.06, WaveMetrics, Inc.). Reversal potentials were defined as the first recorded data point, where currents reversed signs from negative to positive. For I/V relationships, voltage ramps in the absence of the agonist were used to subtract background conductances. Results are reported as mean ± standard error.

The next assay concerns the target HyNaC2/3/7 (Hydra vulgaris (Hydra magnipapillata), UniProt A0A0A0MP73+A8DZR6+A8DZR7). The experiment in a line: Activation of HyNaC2/3/7 expressed in Xenopus oocytes by Hydra-RFamides (TEVC). Format: cell-based. Particulars: EGTA-injected oocytes. The method, then:
as §1, §2

In another assay the target is HyNaC2/4/6 (Hydra vulgaris (Hydra magnipapillata), UniProt A0A0A0MP54+A8DZR6+A8DZR8). Briefly: Activation of HyNaC2/4/6 expressed in Xenopus oocytes by Hydra-RFamides (TEVC). Format: cell-based. The conditions noted are these: EGTA-injected oocytes. How it is done:
as §1, §2

Assay [3] has as its target T1, HyNaC2/3/5. Briefly: Activation of HyNaC2/3/5 expressed in Xenopus oocytes by Hydra-RFamides (TEVC). Format: cell-based. Particulars: EGTA-injected oocytes. How it is done:
as §1, §2

The target in a further assay is HyNaC2/9/7 (Hydra vulgaris (Hydra magnipapillata), UniProt A0A0A0MP48+A0A0A0MP73+A8DZR6). The experiment in a line: Activation of HyNaC2/9/7 expressed in Xenopus oocytes by Hydra-RFamides (TEVC). Format: cell-based. The conditions noted are these: EGTA-injected oocytes. How it is done:
as §1, §2

Another assay addresses HyNaC2/3/6 (Hydra vulgaris (Hydra magnipapillata), UniProt A0A0A0MP54+A8DZR6+A8DZR7). The experiment in a line: Activation of HyNaC2/3/6 expressed in Xenopus oocytes by Hydra-RFamides (TEVC). Format: cell-based. The conditions noted are these: EGTA-injected oocytes. The method, then:
as §1, §2

A further assay has as its system HyNaC2/9/5. Briefly: Activation of HyNaC2/9/5 in Xenopus oocytes by Hydra-RFamides. Format: cell-based, Hydra magnipapillata. The conditions noted are these: channel opened by lowering extracellular Ca2+. How it is done: The contribution of the distantly related HyNaC12 to peptide-gated channels was assessed by co-expression with HyNaC2 and one or several other HyNaCs (HyNaC3 to HyNaC11). In addition, HyNaC12 was co-expressed with pools of different HyNaCs without HyNaC2. […] In fact, all HyNaCs that were activated by Hydra-RFamide I were opened by lowering the extracellular Ca^2+ concentration ([Ca^2+]e) to 10 nM (Figure 4). […] Some DEG/ENaCs are constitutively opened by an amino acid substitution at the so-called DEG-position. To further investigate whether HyNaC12 forms a functional homomeric channel, we substituted a glycine at the DEG-position by threonine (G436T), which has a large side chain. This substitution did, however, not constitutively open HyNaC12 (data not shown). This applies also for the co-expression of HyNaC12-G436T together with pools of different wild-type HyNaC subunits, leaving the function of HyNaC12 unknown.
To study the biophysical properties of the new HyNaCs, cRNA of HyNaCs was synthesized in vitro (mMessage mMachine kit, Ambion, Austin, Texas, USA) and injected into Xenopus laevis oocytes of stage V and VI. […] Whole cell currents were recorded from defolliculated oocytes by two-electrode voltage-clamp (TEVC) using the amplifier TurboTec 03X (npi electronic GmbH, Tamm, Germany). […]

For another assay, the target named is HyNaC2/11/5 (Hydra vulgaris (Hydra magnipapillata), UniProt A0A0A0MP55+A8DZR6+D3UD58). The experiment in a line: Activation of HyNaC2/11/5 expressed in Xenopus oocytes by Hydra-RFamides (TEVC). Format: cell-based. How it is done: as §1, §2
Sequence of HyNaC2/11/5 (A0A0A0MP55 entry or part of it): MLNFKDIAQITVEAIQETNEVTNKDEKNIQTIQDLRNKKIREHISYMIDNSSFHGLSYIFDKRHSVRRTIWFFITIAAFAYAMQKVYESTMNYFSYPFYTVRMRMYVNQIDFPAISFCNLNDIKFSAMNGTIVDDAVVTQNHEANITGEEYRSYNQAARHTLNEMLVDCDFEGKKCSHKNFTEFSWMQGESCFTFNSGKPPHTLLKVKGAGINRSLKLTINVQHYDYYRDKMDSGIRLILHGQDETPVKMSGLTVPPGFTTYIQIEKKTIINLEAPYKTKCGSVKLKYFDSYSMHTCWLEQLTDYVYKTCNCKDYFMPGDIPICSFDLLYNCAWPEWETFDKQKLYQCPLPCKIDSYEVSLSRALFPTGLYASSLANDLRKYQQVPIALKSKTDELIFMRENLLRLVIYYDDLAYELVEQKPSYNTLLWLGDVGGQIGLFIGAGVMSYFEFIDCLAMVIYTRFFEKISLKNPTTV
Sequence of HyNaC2/11/5 (A8DZR6 entry or part of it): as the sequence (A8DZR6 entry or part of it) above
Sequence of HyNaC2/11/5 (D3UD58 entry or part of it): as the sequence (D3UD58 entry or part of it) above

Like-named read-outs stand apart in the source and are kept apart here.

Sequence of HyNaC2/9/7 (A0A0A0MP48 entry or part of it): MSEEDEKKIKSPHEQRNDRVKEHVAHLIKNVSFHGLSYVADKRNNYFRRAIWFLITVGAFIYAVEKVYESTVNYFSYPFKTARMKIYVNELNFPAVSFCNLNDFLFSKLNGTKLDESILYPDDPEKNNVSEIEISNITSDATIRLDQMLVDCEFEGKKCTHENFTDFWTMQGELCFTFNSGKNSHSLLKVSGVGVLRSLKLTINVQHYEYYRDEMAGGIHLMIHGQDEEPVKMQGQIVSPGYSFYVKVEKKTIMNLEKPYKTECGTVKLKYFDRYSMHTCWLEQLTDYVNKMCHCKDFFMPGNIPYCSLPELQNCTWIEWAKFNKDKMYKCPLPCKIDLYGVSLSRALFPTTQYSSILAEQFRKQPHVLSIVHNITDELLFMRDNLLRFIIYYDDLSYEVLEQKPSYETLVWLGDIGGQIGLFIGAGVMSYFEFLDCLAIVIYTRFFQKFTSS
Sequence of HyNaC2/9/7 (A8DZR6 entry or part of it): as the sequence (A8DZR6 entry or part of it) above
Sequence of HyNaC2/9/7 (A0A0A0MP73 entry or part of it): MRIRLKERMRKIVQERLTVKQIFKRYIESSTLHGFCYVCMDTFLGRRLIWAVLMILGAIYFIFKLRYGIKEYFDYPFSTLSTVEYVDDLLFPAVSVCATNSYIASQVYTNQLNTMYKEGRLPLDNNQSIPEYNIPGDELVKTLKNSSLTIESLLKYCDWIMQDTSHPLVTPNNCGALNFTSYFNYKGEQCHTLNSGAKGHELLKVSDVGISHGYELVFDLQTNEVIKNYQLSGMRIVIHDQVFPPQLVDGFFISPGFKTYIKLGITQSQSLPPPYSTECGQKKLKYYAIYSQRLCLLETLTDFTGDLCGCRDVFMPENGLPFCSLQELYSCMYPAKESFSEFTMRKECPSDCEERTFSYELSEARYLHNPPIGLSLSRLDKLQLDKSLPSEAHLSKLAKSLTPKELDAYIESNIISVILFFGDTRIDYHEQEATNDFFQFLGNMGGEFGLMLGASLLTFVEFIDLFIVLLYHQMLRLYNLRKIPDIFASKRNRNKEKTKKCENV

Consider Hydra-RFamide IV, for which the “activation of functional HyNaC heterotrimers (current elicited)” value in [1] is given as “did not elicit a current”.
On to Hydra-RFamide V, for which the “activation of functional HyNaC heterotrimers (current elicited)” value in assay [1] is on record as “did not elicit a current”.
Broadly, the EC50 is the concentration needed to bring the measured effect to its halfway point. Consider Hydra-RFamide II, for which the EC50 on HyNaC2/3/5 [2] (oocytes not injected with EGTA, read-out: EC50 (apparent affinity) for Hydra-RFamide II) was 340 ± 80 nM; at HyNaC2/3/5 [3] (read-out: EC50 (apparent affinity) for Hydra-RFamide II), 1610 ± 270 nM; on HyNaC2/9/7 (read-out: EC50 for Hydra-RFamide II) it was 40 ± 10 nM; on HyNaC2/11/5 (EGTA-injected oocytes, read-out: EC50 for Hydra-RFamide II), 950 ± 160 nM. The “apparent affinity for Hydra-RFamide II relative to Hydra-RFamide I” value is “ten times higher” at HyNaC2/3/5 [2] and “about 15 fold” on HyNaC2/11/5 (0.95 μM compared with 13.8 μM). Further, in assay [1] (data not shown), the “activation of channels that were activated by Hydra-RFamide I” value is on record as “also activated”. Further, the “current amplitude at highest agonist concentration (Hydra-RFamide II)” value is 1.1 ± 0.4 μA on HyNaC2/10/7; 11.8 ± 4.0 μA at HyNaC2/3/7; 4.7 ± 0.8 μA on HyNaC2/4/6; 5.3 ± 1.0 μA on HyNaC2/3/5 [3]; 3.6 ± 1.3 μA at HyNaC2/9/7; 9.2 ± 1.7 μA on HyNaC2/3/6. Besides, the “current amplitude at highest agonist concentration (Hydra-RFamide II)” value at HyNaC2/11/5 (EGTA-injected oocytes) is 2.2 ± 0.4 μA. Moreover, the “activation of HyNaC2/9/5” value with HyNaC2/9/5 was “not activated”.
